Target: T1, human c-Met (Homo sapiens, UniProt P08581)
T1 construct: Recombinant GST-tagged cytosolic domains of human c-Met; 6xHis; made in house; host or cells: Sf9 or Sf21 insect cells (baculovirus, Pharmingen vector pGcGHLT-A, B or C)
Test: In vitro kinase assay (homogeneous time-resolved tyrosine kinase assay, HTRF) for c-Met
Type: biochemical
Conditions: recombinant GST-tagged cytosolic domain of c-Met, 0.2 nM c-Met, 50 μM MgATP, 80 min at room temperature
Source text: Recombinant GST-tagged cytosolic domains of human c-Met and other receptor tyrosine kinases including mouse c-Met, human Ron, KDR, IGFR, EGFR, FGFR, Mer, TrkA and Tie2 are used to determine whether the compounds of the instant invention modulate the enzymatic activities of these kinases.
Soluble recombinant GST-tagged cytosolic domains of c-Met and other receptor tyrosine kinases are expressed in a baculovirus system (Pharmingen) according to a protocol recommended by the manufacturer. The c-DNA encoding each cytosolic domain is subcloned into a baculovirus expression vector (pGcGHLT-A, B or C, Pharmingen) containing an in frame 6× histidine tag and a GST tag. […] The protein concentrations of the fusion proteins are determined using Coomassie Plus Protein Assay (Pierce) with BSA as standard.
The kinase activities of c-Met and other kinases are measured using a modified version of the homogeneous time-resolved tyrosine kinase assay described by Park et al. (1999, Anal. Biochem. 269:94-104).
The procedure for determining the potency of a compound to inhibit c-Met kinase comprises the following steps: • 1. […] Read HTRF signals on a Victor reader (PerkinElmer) in HTRF mode after 60 min. • 6. IC50 is determined by fitting the observed relationship between compound concentration and HTRF signal with a 4-parameter logistic equation. […]

T1 sequence (P08581 956-1390 limits assumed): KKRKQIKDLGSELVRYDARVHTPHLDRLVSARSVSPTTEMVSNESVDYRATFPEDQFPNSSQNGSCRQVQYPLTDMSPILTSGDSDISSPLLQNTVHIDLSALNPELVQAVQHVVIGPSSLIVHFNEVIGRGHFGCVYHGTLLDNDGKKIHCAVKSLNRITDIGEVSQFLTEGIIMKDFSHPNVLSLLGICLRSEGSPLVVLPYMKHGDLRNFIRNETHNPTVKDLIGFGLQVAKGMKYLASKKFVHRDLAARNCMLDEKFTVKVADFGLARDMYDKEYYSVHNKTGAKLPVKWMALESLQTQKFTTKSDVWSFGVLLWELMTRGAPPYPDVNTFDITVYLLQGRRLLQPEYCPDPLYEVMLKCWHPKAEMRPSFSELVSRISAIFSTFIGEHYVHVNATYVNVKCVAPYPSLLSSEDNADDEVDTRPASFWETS

IC50: ≤ 50 µM
Structure (SMILES): O=c1c2cc(-c3ccccc3)cnc2ccc2cccc(Br)c12 [Compound 3, 6-bromo-3-phenyl-5H-benzo[4,5]cyclohepta[1,2-b]pyridin-5-one]

— patent US7550478B2, “Tyrosine kinase inhibitors” (Merck & Co. Inc., priority 2006, dated 2009)
